Data published in patent US20140377337A1 (priority 2012, published 2014).

Tests used:
ocular district = assay: Blood flow / anti-ischemic effect in the ocular district after PGE1 cream on the inner forearm; format: in vivo, patient
high myopia = details: intravenously administered PGE1, conclusion of the cited publication; cited from earlier work

CCCCC[C@H](O)/C=C/[C@H]1[C@H](O)CC(=O)[C@@H]1CCCCCCC(=O)O [PGE1, prostaglandin E1]
anti-ischemic effects in the ocular district versus 60 micrograms of PGE1 by intravenous infusion (ocular district; cream 20 μg per ml, patient weighing 60 kg, total dose 4 ml of cream (80 μg total of PGE1), transdermal): comparable
effect on blood flow at the ocular district level (ocular district; cream with 10-30 micrograms of PGE1 per ml, applied on the inner forearm): increased blood flow
duration of the effect of the intravenous administration (high myopia): 6-8 weeks
